{"source": "patent US20240002395A1", "about": "“COMPOUNDS AND THEIR USE FOR TREATING NEUROPATHIC PAIN” (The Johns Hopkins University, priority 2020, published 2024)", "key": {"[1]": {"target": "T1, human MrgprX1 (Homo sapiens, UniProt Q96LB2)", "T1 construct": "expressed in transfected cells", "T1 sequence (Q96LB2 whole entry)": "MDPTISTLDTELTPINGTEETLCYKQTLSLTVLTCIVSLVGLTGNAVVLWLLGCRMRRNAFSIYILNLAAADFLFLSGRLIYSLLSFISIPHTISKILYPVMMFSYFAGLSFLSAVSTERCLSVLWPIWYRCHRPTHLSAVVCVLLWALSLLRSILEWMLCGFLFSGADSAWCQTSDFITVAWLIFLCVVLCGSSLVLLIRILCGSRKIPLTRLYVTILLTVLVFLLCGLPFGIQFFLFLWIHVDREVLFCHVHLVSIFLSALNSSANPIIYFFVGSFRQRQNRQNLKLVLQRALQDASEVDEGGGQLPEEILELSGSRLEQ", "experiment": "MrgprX1 positive allosteric modulator (PAM) calcium FLIPR assay in HEK293 cells", "assay_type": "cell-based", "settings": "PAM activity in presence of EC20 concentration of BAM8-22; HEK293 cells stably transfected with human MrgprX1", "experimental": "HEK293 cells stably transfected with human MrgprX1 were plated onto poly-D-lysine-coated, black-walled, 96-well plates at a seeding density of 12,000 cells/well and grown for two days. On the day of the experiment, cells were incubated with Fluo-4 AM 2 μM, pluronic acid 0.04% and Trypan Red 1% in HBSS (pH 7.4, 100 μL) for 1 h at 37° C. For each different passage of cells, a BAM8-22 dose response was first conducted and the BAM8-22 EC20 determined. Test compounds were then dissolved and serially diluted in DMSO, further diluted with Trypan Red (1%)-containing HBSS (50 μL) and added to cells (0.33% DMSO concentration by volume) to first monitor for agonist activity. After 2.5 min, BAM8-22 at 4-fold EC20 (50 μL) was added to cells (0.25% DMSO concentration by volume) and the cells imaged on the FLIPR for an additional 2 minutes to monitor the test compounds for PAM activity. Finally, data were normalized to fluorescence signals obtained from 250 nM of BAM8-22 (maximum) and BAM8-22 at its EC20 concentration (minimum). EC50 of a test compound was defined as the concentration required to provoke a response halfway between the minimum and maximum response in the presence of EC20 concentration of BAM8-22."}, "[2]": {"tested_on": "MrgprX1 mice after sciatic CCI", "experiment": "Chronic constrictive injury (CCI) model, heat hypersensitivity (Hargreaves test)", "assay_type": "in vivo", "settings": "100 mg/kg oral gavage", "experimental": "Compound 7a was examined for its ability to attenuate heat hypersensitivity in MrgprX1 mice after receiving sciatic CCI, according to the previously described methods (Proc Natl Acad Sci USA. 2017 Mar. 7; 114(10):E1996-E2005). Paw withdrawal latency (PWL) to noxious heat stimuli was measured with the Hargreaves test. The results are summarized in FIG. 2 (** P<0.01, *** P<0.001 vs. vehicle; ##P<0.01, ###P<0.001, ####P<0.0001 vs. pre-drug. Two-way mixed-model ANOVA with Bonferroni post hoc test. Data are expressed as mean+SD)."}, "[3]": {"experiment": "Metabolic stability in mouse liver microsomes", "assay_type": "in vitro ADME", "settings": "mouse liver microsomes 0.5 mg/mL, NADPH, compound 5 μM, 60 min", "experimental": "(§1) The metabolic stability was evaluated using mouse liver microsomes. For the cytochrome P450 (CYP)-mediated metabolism, the reaction was carried out with 100 mM potassium phosphate buffer, pH 7.4, in the presence of NADPH regenerating system (1.3 mM NADPH, 3.3 mM glucose 6-phosphate, 3.3 mM MgCl2, 0.4 U/mL glucose-6-phosphate dehydrogenase, 50 μM sodium citrate). Reactions, in triplicate, were initiated by addition of the liver microsomes to the incubation mixture (compound final concentration was 5 μM; 0.5 mg/mL microsomes). After 60 min of incubation, aliquots of the mixture were removed and the reaction quenched by addition of three times the volume of ice-cold acetonitrile spiked with the internal standard. Compound disappearance was monitored over time using a liquid chromatography and tandem mass spectrometry (LC/MS/MS) method."}, "[4]": {"experiment": "In vivo oral pharmacokinetics in mice", "settings": "100 mg/kg oral; for Tmax: male, CD-1, mouse", "experimental": "Male CD-1 mice between 25 and 30 g were obtained from Harlan, and maintained on a 12-h light-dark cycle with ad libitum access to food and water. Three animals were used per time-point for each treatment group. Compound 7a was dissolved in 5% dimethyl acetamide, 10% Tween80, 10% Cremophor EL, 25% PEG400, and 50% water, and administered to male mice as a single oral dose by oral gavage of 100 mg/kg. The mice were sacrificed at various time points post-drug administration. Animals were euthanized with CO2, and blood samples were collected in heparinized microtubes by cardiac puncture. Brain and spinal cord tissues were dissected and immediately flash frozen (−80° C.). Blood samples were spun at 2,000×g for 15 min, plasma was removed and stored at −80° C. until LC-MS analysis. Prior to extraction, frozen samples were thawed on ice. The calibration curves were developed using plasma and brain from naïve animals as a matrix. Plasma samples (50 μL), were processed using a single liquid extraction method by addition of 300 μL of acetonitrile as with internal standard (losartan: 0.5 μM), followed by vortex mixing for 30 sec and then centrifugation at 10,000×g for 10 min at 4° C. Fifty microliter of the supernatant is diluted with 50 μL of water and transferred to 250 μL polypropylene autosampler vials sealed with a Teflon cap. For brain and spinal cord tissue analysis, samples were weighed in the range of (80-100 mg) to which 2-volumes of acetonitrile as with internal standard (losartan: 0.5 μM) was added and homogenized for extraction of the analyte. Samples were vortex mixed for 1 min and centrifuged as above. A 20 μL aliquot of supernatant was diluted with 20 μL of water and transferred to 250 μL polypropylene autosampler vials sealed with a Teflon cap. A volume of 3 μL was injected onto the ultra-performance liquid chromatography (UPLC) instrument for quantitative analysis by LC-MS/MS. Samples were analyzed on a Thermo Scientific Accela UPLC system coupled to Accela open autosampler at ambient temperature with an Agilent Eclipse Plus column (100×2.1 mm i.d.) packed with a 1.8 μm C18 stationary phase. The autosampler was temperature controlled and operated at 10° C. The mobile phase used for the chromatographic separation was composed of acetonitrile/water containing 0.1% formic acid and with a flow rate of 0.4 mL/min for 4.5 min using gradient elution. The column effluent was monitored using TSQ Vantage triple-quadrupole mass-spectrometric detector, equipped with an electrospray probe set in the positive ionization mode. Samples were introduced into the ionization source through a heated nebulized probe (350° C.)."}, "[5]": {"experiment": "Metabolic stability in human liver microsomes", "assay_type": "in vitro ADME", "experimental": "[The procedure below names another species; the source lists this species under the same test.] as §1"}, "[6]": {"settings": "intrathecal injection; cited from earlier work"}}, "data": [{"smiles": "CC(C)(C)c1sc2ncnc(Oc3ccccc3OC(F)(F)F)c2c1-c1ccc(Cl)c(Cl)c1", "note": "[Compound 7a, 6-tert-butyl-5-(3,4-dichlorophenyl)-4-(2-(trifluoromethoxy)phenoxy)thieno[2,3-d]pyrimidine]", "values": [{"measurement": "EC50", "setting": "[1]", "result": 100, "unit": "nM"}, {"measurement": "ipsilateral paw withdrawal latency (PWL) to noxious heat", "setting": "[2]; 1-2 hours after dosing, day 12 and day 26 post-CCI, vs pre-drug level", "result": "significantly increased from pre-drug level"}, {"measurement": "contralateral paw withdrawal latency (PWL) to noxious heat", "setting": "[2]; compared to pre-drug baseline or vehicle-treated group", "result": "no significant changes"}, {"measurement": "% remaining after 1-h incubation, Mouse", "setting": "[3]", "result": 25, "unit": "%"}, {"measurement": "AUC0-last", "setting": "[4]; Brain", "result": "2.37 ± 0.03", "unit": "µM·h"}, {"measurement": "Cmax", "setting": "[4]; Brain", "result": "0.82 ± 0.05", "unit": "µM"}, {"measurement": "Cmax", "setting": "[4]; Plasma", "result": "39 ± 5.06", "unit": "µM"}, {"measurement": "Cmax", "setting": "[4]; Spinal cord", "result": "4.6 ± 0.6", "unit": "µM"}, {"measurement": "Tmax", "setting": "[4]; Brain", "result": "1.67 ± 0.33", "unit": "h"}, {"measurement": "Tmax", "setting": "[4]; Plasma", "result": "1.67 ± 0.33", "unit": "h"}, {"measurement": "Tmax", "setting": "[4]; Spinal cord", "result": "1.17 ± 0.44", "unit": "h"}, {"measurement": "% remaining after 1-h incubation, Human", "setting": "[5]", "result": ">95", "unit": "%"}]}, {"smiles": "Cc1sc2ncnc(Oc3ccccc3F)c2c1-c1ccccc1", "note": "[Compound 7bb, 4-(2-fluorophenoxy)-6-methyl-5-phenylthieno[2,3-d]pyrimidine]", "values": [{"measurement": "EC50", "setting": "[1]", "result": 400, "unit": "nM"}, {"measurement": "% remaining after 1-h incubation, Mouse", "setting": "[3]", "result": "<5", "unit": "%"}, {"measurement": "% remaining after 1-h incubation, Human", "setting": "[5]", "result": 12, "unit": "%"}, {"measurement": "melting point", "result": 158, "unit": "°C"}]}, {"smiles": "CC(C)(C)c1sc2ncnc(Oc3ccccc3F)c2c1-c1ccccc1", "note": "[Compound 7bd, 6-(tert-butyl)-4-(2-fluorophenoxy)-5-phenylthieno[2,3-d]pyrimidine]", "values": [{"measurement": "EC50", "setting": "[1]", "result": 300, "unit": "nM"}, {"measurement": "% remaining after 1-h incubation, Mouse", "setting": "[3]", "result": "<5", "unit": "%"}, {"measurement": "% remaining after 1-h incubation, Human", "setting": "[5]", "result": 78, "unit": "%"}, {"measurement": "melting point", "result": "81 to 82", "unit": "°C"}]}, {"smiles": "CC(C)(C)c1sc2ncnc(Oc3c(F)cccc3F)c2c1-c1ccc(Cl)c(Cl)c1", "note": "[Compound 7n, 6-tert-butyl-5-(3,4-dichlorophenyl)-4-(2,6-difluorophenoxy)thieno[2,3-d]pyrimidine]", "values": [{"measurement": "EC50", "setting": "[1]", "result": 20, "unit": "nM"}, {"measurement": "% remaining after 1-h incubation, Mouse", "setting": "[3]", "result": 36, "unit": "%"}, {"measurement": "% remaining after 1-h incubation, Human", "setting": "[5]", "result": 93, "unit": "%"}, {"measurement": "melting point", "result": 205, "unit": "°C"}]}, {"smiles": "CCOc1ccccc1NC(=O)c1ccccc1NS(=O)(=O)C1CC1", "note": "[ML382, 2-(cyclopropanesulfonamido)-N-(2-ethoxyphenyl)benzamide]", "values": [{"measurement": "efficacy in preclinical models of pain", "setting": "[6]", "result": "showed efficacy"}]}]}
